Test results as given in article PMC9065877, “Safety, tolerability and pharmacokinetics of the oligomer modulator anle138b with exposure levels sufficient for therapeutic efficacy in a murine Parkinson model: A randomised, double-blind, placebo-controlled phase 1a trial” (EBioMedicine, 2022).
Like-named read-outs stand apart in the source and are kept apart here.

Tests used:
[1] = 28-day toxicity study in rats; conditions: rat, in vivo; for Cmax: at 50 mg, read-out: Cmax at NOAEL
Excerpt: This trial followed the recommendations of the EMA (European Medicines Agency) (EMEA/CHMP/SWP/28367/07 Rev. 1; 20 July 2017) and the FDA (Food and Drug Administration) (Guidance for Industry: Estimating the Maximum Safe Starting Dose in Initial Clinical Trials for Therapeutics in Adult Healthy Volunteers. U.S. Department of Health and Human Services Food and Drug Administration Center for Drug Evaluation and Research (CDER) July 2005) for dose finding in a first-in-human study. The safe starting dose was set based on toxicity studies in animals. In a 28-day toxicity study in rats, the no-observed-adverse-effect-level (NOAEL) was determined to be 50 mg/kg/day (human equivalent dose of 8·1 mg/kg using the FDA factor of 6·2 according to the FDA Guidance for Industry “Estimating the Maximum Safe Starting Dose in Initial Clinical Trials for Therapeutics in Adult Healthy Volunteers”). Cmaxǀexposure at 50 mg in males were 2460ǀ25600 and in females 2680ǀ21700 ng/mL ǀ ng*h/mL. In a 28-day cynomolgus monkey toxicity study, the NOAEL was 125 mg/kg/day (human equivalent dose of 40·3 mg/kg). Cmaxǀexposure at 125 mg/kg/day were 3170ǀ15700 (males) and 2720ǀ9720 (females) ng/mL ǀ ng*h/mL. Based upon these NOAELs a safe starting dose derived from the more sensitive species (rat) was calculated using a safety factor of 10 (i.e., 0·8 mg/kg), which corresponds to a dose of approximately 50 mg assuming a body weight of 60 kg. […] Escalation between doses was planned to be flexible depending on emerging results but not to exceed an increment of 2-fold.

[2] = Single ascending dose (SAD) oral pharmacokinetics of anle138b in healthy subjects, plasma; format: in vivo, human; conditions: for AUC(0-t) / Cmax: human, plasma, fasted, geometric mean (CV%); for AUC(0-t): read-out: AUC(0-24)
Description: This was a single-centre, double-blind, randomised, placebo-controlled single ascending dose (SAD) and multiple ascending dose (MAD) study of anle138b in doses of up to 300 mg per day in healthy subjects. In addition, the effect of food (FES) on the PK of anle138b in healthy subjects was examined using single doses of 150 mg. Participants were recruited from Quotient Sciences (Nottingham, UK) volunteer database.
As a safety precaution, sentinel dosing was performed for all SAD and MAD cohorts. In SAD, subjects received a single dose of anle138b or placebo after fasting from all food and drink (except water) for a minimum of 8 h prior to dosing. The dosing in the four SAD-cohorts were 50 mg, 100 mg, 200 mg and 300 mg of free anle138b equivalent, respectively. In the MAD part, participants received anle138b or placebo once daily (QD) for 7 days after fasting from all food and drink (except water) for a minimum of 8 h prior to dosing. The dosing in the three MAD-cohorts was 100 mg, 200 mg and 300 mg of free anle138b equivalent, respectively. Post dosing mouth and hand checks were conducted to ensure the capsules were swallowed. In-study decisions regarding continuation and dose escalation were made by the safety advisory committee (SAC) comprising the principal investigator, the sponsor's medical monitor and a PK expert. For dose escalation to proceed, data needed to be available from a minimum of 6 subjects per cohort with completed per protocol safety and PK assessments up to 48 h after dosing to ensure at least 4 subjects had received active IMP. The decision to proceed to the next higher dose level was based on safety, tolerability and available PK data to 48 h post-dose. The following data were required: Adverse events, vital signs, safety laboratory, ECG, physical examinations, plasma concentrations of anle138b with interim PK parameter estimations (Tmax, Cmax, AUC(0-24), AUC(0-tau), AUC(0-last) and T½, where applicable). Data were provided to the SAC in accordance with Quotient Sciences’ standard operating procedure (SOP) on interim dose decision-making and dose escalation.
Secondary outcome measures were the oral PK of single (SAD) and multiple (MAD) ascending doses of anle138b in the fasted state as well as the effect of co-administration with food on the PK of anle138b. To this end PK blood samples were taken at day 1 (and for MAD day 7) pre-dose and at 0·5, 1, 1·5, 2, 3, 4, 6, 8, 10, 12, 16 and 20 h post-dose, at days 2 to 6 pre-dose only (MAD) and 24, 30, 36 and 48 h post final dose. Analysis of anle138b in plasma was done at Aptuit, an Evotec company, in Verona, Italy. Time point of last quantifiable data was seen to increase with an increase in dose as follows: SAD: from the 50mg dose (subjects ranged between 8-24h) to the 300mg dose (subjects ranged between 36-48h). MAD: from the 100mg dose (subjects ranged between 8-36h) to the 300mg dose (subjects ranged between 20-48h). In FES, subjects ranged between 24-48h.
The study was exploratory and no formal sample size calculation was made. Based on experience from previous studies of similar design, eight subjects per cohort were enrolled for parts 1 (SAD) and 2 (MAD) and a total of twelve subjects for part 3 (FES). Populations and analysis sets were determined for safety and PK data after database lock using the criteria defined in the reporting and analysis plan. The safety population and safety analysis set for SAD and MAD were defined after database lock but prior to study unblinding. Statistical analysis and production of summary tables, figures and listings for all safety data (AEs, vital signs, ECGs and safety laboratory assessments) including changes from baseline as required in this study were performed using the statistical package SAS (v9·4). Additional statistics was provided for PK-related data including coefficient of variation (CV%), geometric mean, geometric CV%, and the number n of subjects that were included in the natural logarithmic transformation). […]

[3] = SAD Cohort B 100 mg single oral dose
[4] = SAD Cohort C 200 mg single oral dose
[5] = SAD Cohort D 300 mg single oral dose

Which Cmax ([1]; female, females) does the source give for Brc1cccc(-c2cc(-c3ccc4c(c3)OCO4)n[nH]2)c1 [anle138b, 3-(1,3-benzodioxol-5-yl)-5-(3-bromophenyl)-1H-pyrazole] here?
The Cmax was 2680 ng/mL.

And the Cmax ([1]; male, males)?
Its Cmax is 2460 ng/mL.

And the NOAEL at 28 days ([1]; 28-day toxicity study, read-out: no-observed-adverse-effect-level (NOAEL))?
The NOAEL at 28 days was 50 mg/kg/day.

What about the “Time point of last quantifiable data (range of subjects)” value ([2]; SAD 50mg dose) of the same compound?
Its value is 8 to 24 h.

What about the “Time point of last quantifiable data (range of subjects)” value ([2]; SAD 300mg dose) of the same compound?
Its value is 36 to 48 h.

And the AUC(0-t) ([2]; SAD Cohort A 50 mg single oral dose)?
Its AUC(0-t) is 113 ng·h/mL.

And the Cmax [2, 3]?
The Cmax was 156 ng/mL.

What about the AUC(0-t) [2, 3] of the same compound?
Its AUC(0-t) is 366 ng·h/mL.

And the Cmax [2, 4]?
The Cmax was 458 ng/mL.

And the AUC(0-t) [2, 4]?
The AUC(0-t) was 1090 ng·h/mL.

And the Cmax [2, 5]?
The Cmax was 704 ng/mL.

What about the AUC(0-t) [2, 5] of the same compound?
The AUC(0-t) was 1650 ng·h/mL.

And the “Achievement of potential therapeutic exposure (based upon nonclinical in vivo models)” value ([2]; single 100 mg dose)?
Its value is “already achieved after single 100 mg dose”.
